Test results from ChEMBL document CHEMBL2396653, “Synthesis and antimycobacterial evaluation of N-substituted 5-chloropyrazine-2-carboxamides” (Bioorg Med Chem Lett, 2013).
≈ marks a conversion by molar mass, not a printed value. Calls of active or inactive are those of the source. The calls are words filed in the database; no cut-off is given here.

Assays:
[1] = test system: Mycolicibacterium fortuitum; test: Antimycobacterial activity against pyrazinamide-resistant Mycobacterium fortuitum ATCC 49601 assessed as growth inhibition after 24 hrs to 2 weeks by microbroth dilution method; format: functional
[2] = test system: Mycolicibacterium fortuitum; test: Antimycobacterial activity against pyrazinamide-resistant Mycobacterium fortuitum ATCC 49403 assessed as growth inhibition after 24 hrs to 2 weeks by microbroth dilution method; format: functional
Mycobacterium kansasii [3] = test: Antimycobacterial activity against pyrazinamide-resistant Mycobacterium kansasii assessed as growth inhibition after 24 hrs to 2 weeks by microbroth dilution method; format: functional
[4] = test system: Mycobacterium tuberculosis; test: Antimycobacterial activity against pyrazinamide-susceptible Mycobacterium tuberculosis ATCC 35801 assessed as growth inhibition after 24 hrs to 2 weeks by microbroth dilution method; format: functional
[5] = test system: Mycobacterium tuberculosis; test: Antimycobacterial activity against pyrazinamide-susceptible Mycobacterium tuberculosis ATCC 27294 assessed as growth inhibition after 24 hrs to 2 weeks by microbroth dilution method; format: functional
[6] = Stability of the compound at pH 7; format: physicochemical; conditions: buffer
[7] = test system: Trichophyton mentagrophytes; test: Antifungal activity against Trichophyton mentagrophytes 445 assessed as growth inhibition after 72 to 120 hrs by microbroth dilution method; format: functional, organism-based
Lichtheimia corymbifera = test: Antifungal activity against Absidia corymbifera 272 assessed as growth inhibition after 24 to 48 hrs by microbroth dilution method; format: functional, organism-based
Aspergillus fumigatus = test: Antifungal activity against Aspergillus fumigatus 231 assessed as growth inhibition after 24 to 48 hrs by microbroth dilution method; format: functional, organism-based
Trichosporon asahii = test: Antifungal activity against Trichosporon asahii 1188 assessed as growth inhibition after 24 to 48 hrs by microbroth dilution method; format: functional, organism-based
Nakaseomyces glabratus = test: Antifungal activity against Candida glabrata 20/I assessed as growth inhibition after 24 to 48 hrs by microbroth dilution method; format: functional, organism-based
Pichia kudriavzevii = test: Antifungal activity against Candida krusei E28 assessed as growth inhibition after 24 to 48 hrs by microbroth dilution method; format: functional, organism-based
Candida albicans = test: Antifungal activity against Candida albicans ATCC 44859 assessed as growth inhibition after 24 to 48 hrs by microbroth dilution method; format: functional, organism-based
Candida tropicalis = test: Antifungal activity against Candida tropicalis 156 assessed as growth inhibition after 24 to 48 hrs by microbroth dilution method; format: functional, organism-based
Klebsiella pneumoniae [8] = test: Antibacterial activity against ESBL-positive Klebsiella pneumoniae J 14368/08 clinical isolate assessed as growth inhibition after 24 to 48 hrs by microbroth dilution method; format: functional, organism-based
Klebsiella pneumoniae [9] = test: Antibacterial activity against Klebsiella pneumoniae D 11750/08 clinical isolate assessed as growth inhibition after 24 to 48 hrs by microbroth dilution method; format: functional, organism-based
Enterococcus = test: Antibacterial activity against Enterococcus sp. J 14365/08 clinical isolate assessed as growth inhibition after 24 to 48 hrs by microbroth dilution method; format: functional, organism-based
[10] = test system: Staphylococcus epidermidis; test: Antibacterial activity against Staphylococcus epidermidis H 6966/08 clinical isolate assessed as growth inhibition after 24 to 48 hrs by microbroth dilution method; format: functional, organism-based
Staphylococcus aureus [11] = test: Antibacterial activity against methicillin-resistant Staphylococcus aureus H 5996/08 clinical isolate assessed as growth inhibition after 24 to 48 hrs by microbroth dilution method; format: functional, organism-based
Pseudomonas aeruginosa = test: Antibacterial activity against Pseudomonas aeruginosa CCM 1961 assessed as growth inhibition after 24 to 48 hrs by microbroth dilution method; format: functional, organism-based
Escherichia coli = test: Antibacterial activity against Escherichia coli CCM 4517 assessed as growth inhibition after 24 to 48 hrs by microbroth dilution method; format: functional, organism-based
Staphylococcus aureus [12] = test: Antibacterial activity against Staphylococcus aureus CCM 4516/08 assessed as growth inhibition after 24 to 48 hrs by microbroth dilution method; format: functional, organism-based
[13] = Lipophilicity, log K of the compound by HPLC analysis; format: physicochemical
[14] = test system: Mycobacterium tuberculosis; test: Ratio of pyrazinamide MIC to compound MIC for Mycobacterium tuberculosis H37Rv; format: functional
Mycobacterium avium [15] = test: Antimycobacterial activity against Mycobacterium avium CNCTC My 152/73 assessed as growth inhibition after 14 days by microdilution method; format: functional; conditions: CNCTC My 152/73, 336 h
Mycobacterium avium [16] = test: Antimycobacterial activity against Mycobacterium avium CNCTC My 80/72 assessed as growth inhibition after 14 days by microdilution method; format: functional; conditions: CNCTC My 80/72, 336 h
Mycobacterium kansasii [17] = test: Antimycobacterial activity against Mycobacterium kansasii CNCTC My 235/80 assessed as growth inhibition after 14 days by microdilution method; format: functional; conditions: CNCTC My 235/80, 336 h
[18] = test system: Mycobacterium tuberculosis; test: Antimycobacterial activity against Mycobacterium tuberculosis H37Rv assessed as growth inhibition after 14 days by microdilution method; format: functional; conditions: 336 h

| Compound | Stability [6] | growth inhibition (GI) [7] | growth inhibition (GI) (Lichtheimia corymbifera) | growth inhibition (GI) (Aspergillus fumigatus) | growth inhibition (GI) (Trichosporon asahii) | growth inhibition (GI) (Nakaseomyces glabratus) | growth inhibition (GI) (Pichia kudriavzevii) | growth inhibition (GI) (Candida albicans) | growth inhibition (GI) (Candida tropicalis) | growth inhibition (GI) (Klebsiella pneumoniae [8]) | growth inhibition (GI) (Klebsiella pneumoniae [9]) | growth inhibition (GI) (Enterococcus) | growth inhibition (GI) [10] | growth inhibition (GI) (Staphylococcus aureus [11]) | growth inhibition (GI) (Pseudomonas aeruginosa) | growth inhibition (GI) (Escherichia coli) | growth inhibition (GI) (Staphylococcus aureus [12]) | log K [13] | MIC (Mycobacterium avium [15]) [µg/mL] | MIC (Mycobacterium avium [16]) [µg/mL] | also measured |
| --- | --- | --- | --- | --- | --- | --- | --- | --- | --- | --- | --- | --- | --- | --- | --- | --- | --- | --- | --- | --- | --- |
| NC(=O)c1cnc(Cl)cn1 | – | – | – | – | – | – | – | – | – | – | – | – | – | – | – | – | – | – | – | – | MIC [1]: 8 µg/mL (≈ 50.8 µM); MIC [2]: 8 µg/mL (≈ 50.8 µM); MIC (Mycobacterium kansasii [3]): 8 µg/mL (≈ 50.8 µM); MIC [4]: 16 µg/mL (≈ 102 µM); MIC [5]: 16 µg/mL (≈ 102 µM) |
| O=C(NCc1ccc(Cl)cc1Cl)c1cnc(Cl)cn1 | Stable | inactive | inactive | inactive | inactive | inactive | inactive | inactive | inactive | inactive | inactive | inactive | inactive | inactive | inactive | inactive | inactive | 0.727 | > 100 | > 100 | Ratio [14]: 3; MIC (Mycobacterium kansasii [17]): > 100 µg/mL; MIC [18]: 12.5 µg/mL (≈ 39.5 µM) |
| O=C(Nc1ccccc1F)c1cnc(Cl)cn1 | Stable | inactive | inactive | inactive | inactive | inactive | inactive | inactive | inactive | inactive | inactive | inactive | inactive | inactive | inactive | inactive | inactive | 0.4903 | > 100 | > 100 | MIC (Mycobacterium kansasii [17]): 12.5 µg/mL (≈ 49.7 µM); MIC [18]: 6.25 µg/mL (≈ 24.8 µM) |
| Cc1ccccc1CNC(=O)c1cnc(Cl)cn1 | Stable | inactive | inactive | inactive | inactive | inactive | inactive | inactive | inactive | inactive | inactive | inactive | inactive | inactive | inactive | inactive | inactive | 0.3947 | > 100 | > 100 | MIC (Mycobacterium kansasii [17]): 25 µg/mL (≈ 95.5 µM); MIC [18]: 50 µg/mL (≈ 191 µM) |
| O=C(NCc1ccc(Br)cc1)c1cnc(Cl)cn1 | Stable | inactive | inactive | inactive | inactive | inactive | inactive | inactive | inactive | inactive | inactive | inactive | inactive | inactive | inactive | inactive | inactive | 0.4981 | > 100 | > 100 | Ratio [14]: 3; MIC (Mycobacterium kansasii [17]): 50 µg/mL (≈ 153 µM); MIC [18]: 12.5 µg/mL (≈ 38.3 µM) |
| COc1ccc(NC(=O)c2cnc(Cl)cn2)c(OC)c1 | Stable | inactive | inactive | inactive | inactive | inactive | inactive | inactive | inactive | inactive | inactive | inactive | inactive | inactive | inactive | inactive | inactive | 0.5791 | > 100 | > 100 | MIC (Mycobacterium kansasii [17]): > 100 µg/mL; MIC [18]: > 100 µg/mL |
| Cc1ccc(CNC(=O)c2cnc(Cl)cn2)cc1 | Stable | inactive | inactive | inactive | inactive | inactive | inactive | inactive | inactive | inactive | inactive | inactive | inactive | inactive | inactive | inactive | inactive | 0.4199 | > 100 | > 100 | MIC (Mycobacterium kansasii [17]): 3.13 µg/mL (≈ 12 µM); MIC [18]: 25 µg/mL (≈ 95.5 µM) |
| O=C(Nc1ccc(Br)cc1)c1cnc(Cl)cn1 | Stable | inactive | inactive | inactive | inactive | inactive | inactive | inactive | inactive | inactive | inactive | inactive | inactive | inactive | inactive | inactive | inactive | 0.6601 | > 100 | > 100 | MIC (Mycobacterium kansasii [17]): 6.25 µg/mL (≈ 20 µM); MIC [18]: 3.13 µg/mL (≈ 10 µM) |
